Where two headings read alike, the source gives them in different places.
Tests used:
Assay type in all cases: biochemical
[1] = target: T1, mitochondrial complex II (succinate-quinone reductase, SQR) (Echinococcus multilocularis, UniProt A0A1Z4EAV8+A0A1Z4EAW8+A0A1Z4EAX0+A0A1Z4EAX1); experiment: spectrophotometric succinate-quinone reductase assay, mitochondrial fraction; conditions: 30 mM potassium phosphate, 1 mM MgCl2, pH 7.5, 25 °C
T1 construct: gene SDHB1; native complex II in freeze-thawed enriched mitochondrial fraction of protoscoleces; not purified
Description: spectrophotometric succinate-quinone reductase assay, mitochondrial fraction on mitochondrial complex II (succinate-quinone reductase, SQR)

[2] = target: T2, mitochondrial complex I (NADH-ubiquinone reductase; NADH-decyl rhodoquinone reductase) (Echinococcus multilocularis, UniProt Q9TE76); experiment: spectrophotometric NADH-quinone reductase assay, mitochondrial fraction; conditions: quinone acceptor decyl rhodoquinone (methods; table heads it NADH-ubiquinone reductase), 30 mM potassium phosphate, 1 mM MgCl2, pH 7.5, 25 °C
T2 construct: gene ND1; native multi-subunit complex I in freeze-thawed enriched mitochondrial fraction of protoscoleces; not purified
Description: spectrophotometric NADH-quinone reductase assay, mitochondrial fraction on mitochondrial complex I (NADH-ubiquinone reductase; NADH-decyl rhodoquinone reductase)

[3] = target: T3, succinate-cytochrome c reductase (mitochondrial complexes II and III) (Echinococcus multilocularis, UniProt Q9TE80); experiment: spectrophotometric succinate-cytochrome c reductase assay, mitochondrial fraction; conditions: coupled complex II and III activity, 30 mM potassium phosphate, 1 mM MgCl2, pH 7.5, 25 °C
T3 construct: gene Cytb; coupled activity of native complexes II and III in freeze-thawed enriched mitochondrial fraction of protoscoleces; not purified; with Succinate dehydrogenase [ubiquinone] flavoprotein subunit, mitochondrial; Succinate dehydrogenase [ubiquinone] iron-sulfur subunit, mitochondrial; Succinate dehydrogenase [ubiquinone] cytochrome b large subunit, mitochondrial; Succinate dehydrogenase [ubiquinone] cytochrome b small subunit, mitochondrial
Description: spectrophotometric succinate-cytochrome c reductase assay, mitochondrial fraction on succinate-cytochrome c reductase (mitochondrial complexes II and III)

[4] = read-out: NADH-ubiquinone reductase / (Complex I)
[5] = read-out: Succinate-quinone reductase: SQR / (Complex II)

T3 sequence (Q9TE80 1-355): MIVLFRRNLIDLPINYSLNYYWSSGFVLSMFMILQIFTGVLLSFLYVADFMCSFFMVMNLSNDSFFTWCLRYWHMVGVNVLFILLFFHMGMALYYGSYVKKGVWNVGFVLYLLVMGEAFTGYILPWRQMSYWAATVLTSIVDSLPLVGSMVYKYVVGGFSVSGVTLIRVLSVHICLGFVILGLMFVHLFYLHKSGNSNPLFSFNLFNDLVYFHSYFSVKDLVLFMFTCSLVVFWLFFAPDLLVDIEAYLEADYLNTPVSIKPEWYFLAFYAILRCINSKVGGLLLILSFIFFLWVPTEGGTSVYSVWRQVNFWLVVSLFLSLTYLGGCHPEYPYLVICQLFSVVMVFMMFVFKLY
T3 sequence (Q9GP40 whole entry partner): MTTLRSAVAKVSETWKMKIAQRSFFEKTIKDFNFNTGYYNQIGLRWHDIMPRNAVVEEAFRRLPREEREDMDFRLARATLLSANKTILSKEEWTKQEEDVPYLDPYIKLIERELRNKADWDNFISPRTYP
T3 sequence (A0A1Z4EAV8 26-648 partner): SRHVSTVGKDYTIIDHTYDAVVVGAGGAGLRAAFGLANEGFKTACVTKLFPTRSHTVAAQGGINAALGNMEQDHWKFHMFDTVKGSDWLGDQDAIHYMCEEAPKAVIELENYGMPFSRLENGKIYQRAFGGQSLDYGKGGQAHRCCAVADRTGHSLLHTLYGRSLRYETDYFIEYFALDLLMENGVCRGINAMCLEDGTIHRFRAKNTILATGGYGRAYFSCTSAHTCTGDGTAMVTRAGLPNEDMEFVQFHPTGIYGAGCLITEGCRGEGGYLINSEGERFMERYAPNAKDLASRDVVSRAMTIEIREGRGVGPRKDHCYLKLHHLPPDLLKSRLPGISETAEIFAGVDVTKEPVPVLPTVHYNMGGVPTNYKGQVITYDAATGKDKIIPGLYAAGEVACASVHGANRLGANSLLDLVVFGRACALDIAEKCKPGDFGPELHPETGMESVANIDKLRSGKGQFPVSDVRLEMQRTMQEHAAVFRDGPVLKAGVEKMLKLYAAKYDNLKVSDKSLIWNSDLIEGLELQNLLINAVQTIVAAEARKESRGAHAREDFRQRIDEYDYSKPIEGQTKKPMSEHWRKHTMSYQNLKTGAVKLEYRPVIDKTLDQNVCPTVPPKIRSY
T3 sequence (A0A1Z4EAX0 21-272 partner): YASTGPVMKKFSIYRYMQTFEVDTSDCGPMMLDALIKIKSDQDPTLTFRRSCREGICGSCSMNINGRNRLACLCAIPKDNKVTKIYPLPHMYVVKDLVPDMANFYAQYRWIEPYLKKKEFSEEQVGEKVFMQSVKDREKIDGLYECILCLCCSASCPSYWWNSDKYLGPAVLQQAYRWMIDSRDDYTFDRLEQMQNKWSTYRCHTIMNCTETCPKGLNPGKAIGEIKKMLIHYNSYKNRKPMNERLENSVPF
T3 sequence (A0A1Z4EAX1 53-194 partner): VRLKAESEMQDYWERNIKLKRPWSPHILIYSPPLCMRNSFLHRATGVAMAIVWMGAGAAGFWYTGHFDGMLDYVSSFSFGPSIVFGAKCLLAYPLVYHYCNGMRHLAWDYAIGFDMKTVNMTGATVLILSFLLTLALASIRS
T3 sequence (A0A1Z4EAW8 47-153 partner): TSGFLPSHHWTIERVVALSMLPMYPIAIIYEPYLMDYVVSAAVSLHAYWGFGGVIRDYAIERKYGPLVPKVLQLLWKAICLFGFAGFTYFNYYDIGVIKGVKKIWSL
T1 sequence (A0A1Z4EAX0 21-272): as the sequence (A0A1Z4EAX0 21-272 partner) above
T1 sequence (A0A1Z4EAX1 53-194): as the sequence (A0A1Z4EAX1 53-194 partner) above
T1 sequence (A0A1Z4EAW8 47-153): as the sequence (A0A1Z4EAW8 47-153 partner) above
T1 sequence (A0A1Z4EAV8 26-648): as the sequence (A0A1Z4EAV8 26-648 partner) above
T2 sequence (Q9TE76 1-297): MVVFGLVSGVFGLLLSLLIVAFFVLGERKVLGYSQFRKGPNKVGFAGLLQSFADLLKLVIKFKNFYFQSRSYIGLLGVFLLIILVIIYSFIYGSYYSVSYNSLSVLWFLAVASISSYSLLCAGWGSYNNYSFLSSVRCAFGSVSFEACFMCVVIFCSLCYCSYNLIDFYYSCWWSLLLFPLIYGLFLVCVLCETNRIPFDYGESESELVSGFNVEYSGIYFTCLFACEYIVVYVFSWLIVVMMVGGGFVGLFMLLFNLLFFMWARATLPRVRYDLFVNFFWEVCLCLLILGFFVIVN
T2 sequence (A0A068Y9L9 30-218 partner): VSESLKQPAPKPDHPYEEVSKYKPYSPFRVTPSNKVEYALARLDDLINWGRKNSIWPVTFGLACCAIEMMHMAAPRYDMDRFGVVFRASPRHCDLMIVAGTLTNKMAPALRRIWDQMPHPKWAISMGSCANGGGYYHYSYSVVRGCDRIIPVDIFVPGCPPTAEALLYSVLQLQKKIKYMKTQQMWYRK
T2 sequence (A0A068YF50 31-207 partner): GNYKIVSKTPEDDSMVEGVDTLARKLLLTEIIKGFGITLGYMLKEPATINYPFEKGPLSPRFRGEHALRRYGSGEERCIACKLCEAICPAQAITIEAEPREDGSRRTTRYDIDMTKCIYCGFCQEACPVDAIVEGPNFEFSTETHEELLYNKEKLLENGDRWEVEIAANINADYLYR

Row | SMILES | IC50 [1, 4] | IC50 [2] | IC50 [3, 4] | IC50 [1, 5] | IC50 [3, 5]
1 | C[C@@H]1CC[C@H]2[C@@H](C)C(=O)O[C@@H]3O[C@@]4(C)CC[C@@H]1[C@]32OO4 [artemisinin] | > 40 µM | > 40 µM | > 40 µM |  | 
2 | Cc1cc(/C=C/c2ccc3cc(N(C)C)ccc3[n+]2C)c(C)n1-c1ccccc1 [pyrvinium pamoate] |  | 11 ± 0.3 µM |  | > 30 µM | > 30 µM

From PMC7753922, “Effect of the anti-parasitic compounds pyrvinium pamoate and artemisinin in enzymatic and culture assays: Data on the search for new anti-echinococcal drugs” (Data in Brief, 2020)
